Test results as given in patent publication US12239644B2, “Composition for prevention or treatment of macular degeneration” (KYUNGPOOK NATIONAL UNIVERSITY INDUSTRY-ACADEMIC COOPERATION …, priority 2018, dated 2025).
Read-outs that look alike come from different tables or passages of the source.

Columns and labels:
[1] = test system: VEGF; conditions: ARPE-19 medium
Protocol: ARPE-19 cells were seeded into 60-mm dishes and incubated overnight to adhere to the dishes. On the next day, the medium was replaced with serum-free medium. The cells were treated with fursultiamine-HCl (Toronto research chemical, F865230) or a vehicle (DMSO, Sigma-Aldrich) at the specific concentrations of 0 μM, 50 μM, and 100 μM and then exposed to 1% oxygen condition in a hypoxic chamber (INVIVO2 400, Baker). After hypoxic exposure for 4-6 hours, the cells were lysed with a protein lysis buffer and protein isolation from the lysate was conducted.
After 12 hours later, the medium was recovered and secreted levels of VEGF in the medium were measured using human VEGF enzyme linked immunoassay (ELISA) (R&D systems). Quantitation methods and concentration calculations were conducted according to the manufacturer's manual. Statistical analyses were performed using the Prism program, with statistical significance defined as p<0.05.

[2] = test system: HIF-1α; conditions: ARPE-19 cells, 1% oxygen 4-6 hours, fursultiamine-HCl 20, 50, 100 μM
Protocol: After hypoxic exposure for 4-6 hours, the cells were lysed with a protein lysis buffer and protein isolation from the lysate was conducted.

[3] = test system: choroidal vascular endothelial cells; conditions: C57BL/6J choroid/sclera in Matrigel, day 3 to 5
Protocol: Effects of fursultiamine on the growth of choroidal vascular endothelial cells were evaluated by the ex vivo mouse choroid sprouting assay for age-related macular degeneration.
The eyeball was resected from C57BL/6J mice (Jackson Laboratory) at 3 or 4 weeks of age and the choroid/sclera was separated therefrom and sectioned into a size of 1 mm×1 mm. After being thawed on ice, Matrigel (Becton Dickinson, BD matrigel) in a liquid state was added in an amount of 300 μl to each well of 24-well plates and one of the cut choroid/sclera segments was seeded in the Matrigel in each well. Then, Matrigel was solidified for 10 min in a 37° C. incubator before adding 500 μl of an EGM medium (Lonza, Endothelial Growth Medium) to each well.
Subsequently, the growth of vascular endothelial cells was induced in a 37° C. incubator. The medium was exchanged every two days with a fresh one containing 20 μM or 50 μM fursultiamine-HCl. The growth of vascular endothelial cells from the choroid was monitored from the day of seeding the choroid/sclera and observed on day 3 to 5. The sprouting distances were measured at a total of 4 sites using the ImageJ software and averaged. Statistical analyses were performed with the Prism program, with statistical significance defined as p<0.05.

[4] = test system: laser-induced choroid neovascularization (CNV) models; conditions: C57BL/6J mice, 50 mg/kg orally for 8 days, one week after laser
Protocol: (§1) Statistical analyses were performed using the Prism program, with statistical significance defined as p<0.05.

[5] = test system: laser-induced CNV models; conditions: C57BL/6J mice, 50 mg/kg orally for 8 days, one week after laser
Protocol: as §1

[6] = test system: ARPE-19 cells; conditions: ARPE-19, LPS 10 ug/ml + fursultiamine 50 uM (24 h)
Protocol: To be specific, ARPE-19 cells were seeded onto 96-well XF plates, with the exchange of a fresh medium every two days. On day 5 after cell seeding, the cells were treated with 10 μg/ml LPS (lipopolysaccharides, Sigma-Aldrich) and then with 50 μM fursultiamine on day 6. On day 7, the medium was exchanged with an XF medium (Seahorse XF DMEM medium, Agilent) and the plates were left for 30 min at 37° C. in a non-CO2 incubator.
In order to assess mitochondrial spare capacity, the following mitochondrial electron transport inhibitors and respiratory uncouplers were used in corresponding steps: oligomycin (2 μM), FCCP (0.5 μM), rotenone (2 μM), and antimycin A (2 μM).
The oxygen consumption rate (OCR) was measured using an XFe96 analyzer (Agilent) according to the manufacturer's manual.

CC(=C(CCO)SSCC1CCCO1)N(C=O)Cc1cnc(C)nc1N (stereo in doubt) [Fursultiamine, thiamine tetrahydrofurfuryl disulfide]
VEGF ([1]; 1% O2, Fursultiamine 50 μM): 163.4 ± 7.4 pg/mL | VEGF ([1]; 1% O2, Fursultiamine 100 μM): 47.4 ± 4.6 pg/mL | expression of HIF-1α upregulated in the hypoxic condition [2]: reduced | Sprouting range (pixels) ([3]; Fursultiamine 20 uM): 229.926 ± 28.348 pixels | Sprouting range (pixels) ([3]; Fursultiamine 50 uM): 126.713 ± 22.810 pixels | vascular leakage for the late phase [4]: decreased | Lesion size (10^−3mm^2) [5]: 15.7 ± 1.0 10^−3mm^2 | OCR (%) (mitochondrial spare capacity) [6]: 189.438 ± 21.392%
